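Test compounds were applied to cells in 96-well plates for 48 hours at 5 doses. At the TGI there is no net growth.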
Key:
Test in all cases: DTP human tumour cell line panel, 48 h
OVCAR-3 ovarian = system: OVCAR-3 ovarian
NCI-H23 lung = system: NCI-H23 lung
SK-MEL-2 melanoma = system: SK-MEL-2 melanoma
UACC-257 melanoma = system: UACC-257 melanoma
OVCAR-8 ovarian = system: OVCAR-8 ovarian
SNB-78 CNS = system: SNB-78 CNS
MOLT-4 leukemia = system: MOLT-4 leukemia
ACHN renal = system: ACHN renal
786-0 renal = system: 786-0 renal
HCT-116 colon = system: HCT-116 colon
MALME-3M melanoma = system: MALME-3M melanoma
COLO 205 colon = system: COLO 205 colon
DMS 273 small cell lung = system: DMS 273 small cell lung
HCC-2998 colon = system: HCC-2998 colon
KM20L2 colon = system: KM20L2 colon
DLD-1 colon = system: DLD-1 colon
HOP-92 NSCLC = system: HOP-92 NSCLC
U251 CNS = system: U251 CNS
SF-539 CNS = system: SF-539 CNS
A498 renal = system: A498 renal
LOX IMVI melanoma = system: LOX IMVI melanoma
UO-31 renal = system: UO-31 renal
RXF 393 renal = system: RXF 393 renal
SK-MEL-28 melanoma = system: SK-MEL-28 melanoma
CCRF-CEM leukemia = system: CCRF-CEM leukemia
KM12 colon = system: KM12 colon
SF-295 CNS = system: SF-295 CNS
DMS 114 small cell lung = system: DMS 114 small cell lung
NCI-H226 lung = system: NCI-H226 lung
UACC-62 melanoma = system: UACC-62 melanoma
SK-OV-3 ovarian = system: SK-OV-3 ovarian
NCI-H522 lung = system: NCI-H522 lung
HOP-18 NSCLC = system: HOP-18 NSCLC
A549 NSCLC = system: A549 NSCLC
SW-620 colon = system: SW-620 colon
SF-268 CNS = system: SF-268 CNS
LXFL 529 NSCLC = system: LXFL 529 NSCLC
SNB-75 CNS = system: SNB-75 CNS
M19-MEL melanoma = system: M19-MEL melanoma
SN12C renal = system: SN12C renal
EKVX NSCLC = system: EKVX NSCLC
HT29 colon = system: HT29 colon
K-562 leukemia = system: K-562 leukemia
OVCAR-5 ovarian = system: OVCAR-5 ovarian
TK-10 renal = system: TK-10 renal
M14 melanoma = system: M14 melanoma
SK-MEL-5 melanoma = system: SK-MEL-5 melanoma
HOP-62 NSCLC = system: HOP-62 NSCLC
HL-60(TB) leukemia = system: HL-60(TB) leukemia
SNB-19 CNS = system: SNB-19 CNS
RPMI-8226 leukemia = system: RPMI-8226 leukemia
HCT-15 colon = system: HCT-15 colon
CAKI-1 renal = system: CAKI-1 renal
NCI-H460 lung = system: NCI-H460 lung
OVCAR-4 ovarian = system: OVCAR-4 ovarian
IGROV1 ovarian = system: IGROV1 ovarian
SR leukemia = system: SR leukemia
XF 498 CNS = system: XF 498 CNS

Measured: TGI

CC1(C)c2ccccc2C(C)(C)C(C(=O)Nc2ccccc2)C1C(=O)O (centres undefined)
> 100 µM: OVCAR-3 ovarian | NCI-H23 lung | SK-MEL-2 melanoma | UACC-257 melanoma | OVCAR-8 ovarian | SNB-78 CNS | MOLT-4 leukemia | ACHN renal | 786-0 renal | HCT-116 colon | MALME-3M melanoma | COLO 205 colon | DMS 273 small cell lung | HCC-2998 colon | KM20L2 colon | DLD-1 colon | HOP-92 NSCLC | U251 CNS | SF-539 CNS | A498 renal | LOX IMVI melanoma | UO-31 renal | RXF 393 renal | SK-MEL-28 melanoma | CCRF-CEM leukemia | KM12 colon | SF-295 CNS | DMS 114 small cell lung | NCI-H226 lung | UACC-62 melanoma | SK-OV-3 ovarian | NCI-H522 lung | HOP-18 NSCLC | A549 NSCLC | SW-620 colon | SF-268 CNS | LXFL 529 NSCLC | SNB-75 CNS | M19-MEL melanoma | SN12C renal | EKVX NSCLC | HT29 colon | K-562 leukemia | OVCAR-5 ovarian | TK-10 renal | M14 melanoma | SK-MEL-5 melanoma | HOP-62 NSCLC | HL-60(TB) leukemia | SNB-19 CNS | RPMI-8226 leukemia

O=C(c1cccs1)N(C(=S)N1CCN(c2ccccc2)CC1)C1CCCCC1
> 100 µM: OVCAR-3 ovarian | NCI-H23 lung | SK-MEL-2 melanoma | UACC-257 melanoma | OVCAR-8 ovarian | SNB-78 CNS | MOLT-4 leukemia | ACHN renal | 786-0 renal | HCT-116 colon | MALME-3M melanoma | COLO 205 colon | DMS 273 small cell lung | KM20L2 colon | DLD-1 colon | HOP-92 NSCLC | U251 CNS | HCT-15 colon | SF-539 CNS | LOX IMVI melanoma | UO-31 renal | RXF 393 renal | SK-MEL-28 melanoma | CCRF-CEM leukemia | KM12 colon | SF-295 CNS | CAKI-1 renal | DMS 114 small cell lung | UACC-62 melanoma | SK-OV-3 ovarian | NCI-H460 lung | OVCAR-4 ovarian | NCI-H522 lung | HOP-18 NSCLC | A549 NSCLC | SW-620 colon | IGROV1 ovarian | SF-268 CNS | SR leukemia | LXFL 529 NSCLC | SNB-75 CNS | M19-MEL melanoma | SN12C renal | HT29 colon | K-562 leukemia | OVCAR-5 ovarian | TK-10 renal | M14 melanoma | SK-MEL-5 melanoma | HOP-62 NSCLC | HL-60(TB) leukemia | SNB-19 CNS | RPMI-8226 leukemia

O=C1C(Cl)N(c2ccc(Cl)cc2Cl)C1c1c[nH]c2ccccc12 (centres undefined)
> 100 µM: OVCAR-3 ovarian | NCI-H23 lung | SK-MEL-2 melanoma | UACC-257 melanoma | OVCAR-8 ovarian | MOLT-4 leukemia | HCT-116 colon | MALME-3M melanoma | COLO 205 colon | KM20L2 colon | HOP-92 NSCLC | U251 CNS | SF-539 CNS | UO-31 renal | RXF 393 renal | SK-MEL-28 melanoma | CCRF-CEM leukemia | KM12 colon | SF-295 CNS | DMS 114 small cell lung | XF 498 CNS | UACC-62 melanoma | SK-OV-3 ovarian | NCI-H460 lung | OVCAR-4 ovarian | NCI-H522 lung | A549 NSCLC | SW-620 colon | IGROV1 ovarian | SF-268 CNS | SR leukemia | LXFL 529 NSCLC | SNB-75 CNS | M19-MEL melanoma | SN12C renal | EKVX NSCLC | HT29 colon | K-562 leukemia | TK-10 renal | M14 melanoma | SK-MEL-5 melanoma | HOP-62 NSCLC | HL-60(TB) leukemia | SNB-19 CNS | RPMI-8226 leukemia
